Here are results for 2 molecules from US12473270B2, “CB1R receptor blockers with acyclic backbones” (YISSUM RESEARCH DEVELOPMENT COMPANY OF THE HEBREW …, priority 2019, dated 2025).

One data set addresses T1, CB1 receptor (Mus musculus, UniProt P47746).
T1 construct: crude membranes from mouse brain for CB1 receptor; from tissue; host or cells: mouse brain membranes (crude / P2)
The data set can be described thus: [3H]CP-55,940 radioligand displacement assay. The format is binding. The procedure: Radioligand binding assays. BNS-002 binding to CB1 receptor was assessed in competition displacement assays using [^3H]CP-55,940 as the radioligand and crude membranes from mouse brain for CB1 receptor. All data were in triplicates with Ki values determined from three independent experiments.
Radioligand binding assay. Binding of the tested compounds to CB1 receptor was assessed in competition displacement assays using [3H]CP-55,940 as the radioligand and crude membranes from mouse brain for CB1 receptor. Membranes were extracted according to an established protocol previously described by Catani V. M. and Gasperi V.. Compounds were tested at different concentrations (10-5M-10-11M) and their ability to displace [3H]CP-55,940 was evaluated. Membranes with bound [3H]CP-55,940 were separated and washed from free ligand by vacuum filtration and bound [3H]CP-55,940 radioactivity was measured using a […]. All data were in triplicates with Ki values extracted by nonlinear regression analysis using GraphPad Prism software.
(In general: Displacement assays read how much labelled ligand stays bound in the presence of the test substance.)

The subject of another data set is mice. The data set can be described thus: Centrally-mediated hyperactivity / activity profile. The format is in vivo, mouse. The following applies: single dose IP: rimonabant 10, TMP 35, EST 40, IDB 20 mg/kg. The procedure:
Locomotor activity. Locomotor activity was quantified by the number of disruptions of infrared XYZ beam arrays with a beam spacing of 0.25 cm in the Promethion High-Definition Behavioral Phenotyping System (Sable Instruments, Inc., Las Vegas, NV, USA).
Centrally-mediated hyperactivity profile. […] Mice were placed in metabolic cages and their activity profile was evaluated. Locomotor activity was quantified by the number of disruptions of infrared XYZ beam arrays with a beam spacing of 0.25 cm in the Promethion High-Definition Behavioral Phenotyping System (Sable Instruments, Inc., Las Vegas, NV, USA).

T1 sequence (P47746 whole entry): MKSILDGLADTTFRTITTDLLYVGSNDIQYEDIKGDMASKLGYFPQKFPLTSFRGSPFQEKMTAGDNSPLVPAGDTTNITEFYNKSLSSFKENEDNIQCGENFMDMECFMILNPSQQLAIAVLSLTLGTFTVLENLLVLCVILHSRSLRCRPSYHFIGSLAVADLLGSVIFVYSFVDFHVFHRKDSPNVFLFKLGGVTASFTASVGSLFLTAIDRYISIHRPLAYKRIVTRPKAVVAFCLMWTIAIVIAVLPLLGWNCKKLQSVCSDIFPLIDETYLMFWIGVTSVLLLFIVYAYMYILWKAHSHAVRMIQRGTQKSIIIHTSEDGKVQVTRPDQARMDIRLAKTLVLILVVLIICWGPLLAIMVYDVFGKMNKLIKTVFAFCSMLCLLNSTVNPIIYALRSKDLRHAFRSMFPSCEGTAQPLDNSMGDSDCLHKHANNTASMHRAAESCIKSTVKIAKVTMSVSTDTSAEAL

A word on the Ki: it is a dissociation constant, usually derived from enzyme kinetics or from competition with a known ligand. The low end stands for a stronger hold on the target, the high end for a looser hold on the target. `Cc1c(C(=O)OC2CC(C)(C)N([O])C(C)(C)C2)nn(-c2ccc(Cl)cc2Cl)c1-c1ccc(Cl)cc1` [EST, 2,2,6,6-tetramethyl-1-piperidin-4-yl 5-(4-chlorophenyl)-1-(2,4-dichlorophenyl)-4-methyl-1H-pyrazole-3-carboxylate] came in with an inhibition constant Ki at CB1 receptor of 0.37 to 7.81 nM. Moreover, the “activity profile / hyperactivity vs vehicle group” value in the data set with mice was “no significant hyperactivity”.

`Cc1c(C(=O)NC2CC(C)(C)N([O])C(C)(C)C2)nn(-c2ccc(Cl)cc2Cl)c1-c1ccc(Cl)cc1` [TMP, 5-(4-chlorophenyl)-1-(2,4-dichlorophenyl)-4-methyl-N-(2,2,6,6-tetramethyl-1-oxo-1-piperidin-4-yl)-1H-pyrazole-3-carboxamide] registered a Ki at CB1 receptor of 1.69 to 446 nM. Besides, the “activity profile / hyperactivity vs vehicle group” value in the data set on mice is “no significant hyperactivity”.
